In PubChem BioAssay (NCI):
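48-hour exposure; five concentrations; linearly interpolated endpoints. GI50 marks 50% less growth. Definition used: TGI = concentration required for complete inhibition of growth.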

Tests used:
Experiment in all cases: NCI-60 cell line screen, 48 h
[1] = system: RPMI-8226 leukemia
[2] = system: SF-268 CNS
[3] = system: A549 NSCLC
[4] = system: 786-0 renal
[5] = system: K-562 leukemia
[6] = system: SNB-19 CNS
[7] = system: NCI-H460 lung
[8] = system: HOP-92 NSCLC
[9] = system: SW-620 colon
[10] = system: SF-295 CNS

| SMILES | GI50 [1] [µM] | TGI [1] [µM] | GI50 [2] [µM] | TGI [2] [µM] | GI50 [3] [µM] | TGI [3] [µM] | GI50 [4] [µM] | TGI [4] [µM] | GI50 [5] [µM] | TGI [5] [µM] | GI50 [6] [µM] | TGI [6] [µM] | GI50 [7] [µM] | TGI [7] [µM] | GI50 [8] [µM] | TGI [8] [µM] | GI50 [9] [µM] | TGI [9] [µM] | GI50 [10] [µM] | TGI [10] [µM] |
| --- | --- | --- | --- | --- | --- | --- | --- | --- | --- | --- | --- | --- | --- | --- | --- | --- | --- | --- | --- | --- |
| CCCCCCCCCCCCCCCCCC1=NCCN1CCOC1=C(Cl)C(=O)c2ccccc2C1=O | 2.17 | 5.28 | 2.08 | 4.61 | 4.48 | 22.9 | 2.19 | 4.09 | 0.828 | 4.2 | 3.56 | 11.5 | 3.33 | 16.1 | 1.78 | 3.4 | 1.73 | 3.41 |  |  |
| CN=c1ccc2nc3ccc(N)cc3sc-2c1 | 0.32 | 18 | 2.84 | 17.1 | 0.714 | 13.3 | 10.5 | 25.9 | 1.12 | 16.7 | 3.25 | > 100 | 3.86 | > 100 |  |  | 2.89 | 20.2 | 0.962 | 3.79 |
| O=C1/C(=C/c2ccccc2[N+](=O)[O-])Cc2ccccc21 | 2.44 | 7.84 | 3.1 | 29.6 | 2.5 | 11 | 2.57 | 6.9 | 3.4 | > 100 | 10.6 | 41.2 | 1.15 | 13.1 | 1.22 | 3.36 | 1.27 | 3.22 |  |  |
| OCC1OC(n2cnc3c(N/N=C\c4ccccn4)ncnc32)C(O)C1O (centres undefined) | 0.736 | > 25.3 | 0.167 | 1 | 0.399 | > 100 | 0.256 | 1.01 | 0.368 | > 100 | 0.364 | > 100 | 0.384 | 4.53 |  |  | 0.422 | > 100 | 0.936 | 16.5 |
| O=[N+]([O-])c1ccc(C=Cc2ccccc2)cc1.[C-]#[O+].[C-]#[O+].[C-]#[O+].[Cr] |  |  | 32 | > 100 | 8.69 | > 100 | 3.41 | > 100 | 8.61 | > 100 | > 100 | > 100 | 3.37 | 89.7 | 4.94 | > 100 | 79.5 | > 100 | 42.1 | > 100 |
| O=C1CC(c2c[nH]c3ccccc23)C(=O)N1 (centres undefined) |  | > 100 |  |  |  | > 100 |  | > 100 |  | > 100 |  |  |  | > 100 |  |  |  | > 100 |  | > 100 |
| CCCP1(=O)C=C(C)C(=C(Cl)Cl)C(C)=C1 (centres undefined) |  |  |  | 88.3 |  | > 100 |  | > 100 |  | > 100 |  |  |  | > 100 |  | 89.6 |  | > 100 |  | > 100 |
| COc1cccc(OC)c1C(=O)OCc1ccccc1 |  | > 100 |  | > 100 |  | > 100 |  | > 100 |  | > 100 |  |  |  | > 100 |  | > 100 |  | > 100 |  | > 100 |
| Clc1ccc(Nc2nc3ccccc3nc2-c2cccs2)cc1Cl |  | > 100 |  | > 100 |  | > 100 |  | > 100 |  |  |  | > 100 |  | > 100 |  | 78.8 |  | > 100 |  | > 100 |
| CC(=O)C(CN(CC(C)C)CC(C)C)C(c1ccccc1)c1c(O)c2ccccc2oc1=O (centres undefined) |  | > 100 |  | > 100 |  | > 100 |  | > 100 |  |  |  | > 100 |  |  |  | > 100 |  | > 100 |  | > 100 |
| CO/N=C(\COc1ccc2c(c1)[nH]c1ccccc12)c1ccc(F)cc1 | 43.9 | > 100 | > 100 | > 100 | 29.6 | > 100 | 16.8 | > 100 |  |  | 30 | > 100 | > 100 | > 100 | 13.7 | 55.2 | > 100 | > 100 | 30.1 | > 100 |
| CO[C@H]1CC(O[C@@H]2/C(C)=C/C[C@@H]3C[C@@H](C[C@]4(C=C[C@H](C)[C@@H](C5CCCCC5)O4)O3)OC(=O)[C@@H]3C=C(C)[C@@H](O)[C@H]4OC/C(=C\C=C\[C@@H]2C)[C@]43O)O[C@@H](C)C1O[C@H]1C[C@H](OC)[C@@H](O)[C@H](C)O1 (some centres undefined) | 1.39 | 4.38 | 1.69 | 3.18 |  |  | 1.54 | 3.14 |  |  | 2.03 | 6.52 |  |  | 0.301 | 1.89 |  |  | 1.33 | 2.83 |
| CCC(=O)C12OC3OC(C)(C)OC3C1OC(C)(C)O2 (centres undefined) |  |  |  | > 100 |  | > 100 |  | > 100 |  | > 100 |  | > 100 |  | > 100 |  | > 100 |  | > 100 |  | > 100 |
| Cc1[nH]c2ccccc2c1C(=O)CC1(O)C(=O)Nc2c(Cl)cc(Cl)cc21 (centres undefined) |  | 53.8 |  | 57.3 |  | 96.3 |  | > 100 |  | 58 |  | > 100 |  | > 100 |  |  |  | 52 |  | 56.2 |
| COc1cc2nc(N3CCCC3)nc(NCCc3ccccc3)c2cc1OC | 2.18 | 5.75 | 1.97 | 3.95 |  |  | 1.71 | 3.21 | 1.81 | > 100 | 1.74 | 3.3 | 1.86 | 3.54 | 1.48 | 3.16 | 1.38 | 3.07 | 1.8 | 3.43 |
| CN(N=O)C(=O)ON1C(=O)CCC1=O |  | > 100 |  | > 100 |  | > 100 |  | > 100 |  | > 100 |  | > 100 |  | > 100 |  | > 100 |  | > 100 |  |  |
| O=C1C(=C([O-])c2ccccc2)C(=O)c2ccccc21.O=C1C(=C([O-])c2ccccc2)C(=O)c2ccccc21.[Fe+2] | 65.7 | > 100 | > 100 | > 100 | 54.7 | > 100 | > 100 | > 100 | 84.9 | > 100 | > 100 | > 100 |  |  | 16.1 | 38.6 | > 100 | > 100 | 44 | > 100 |
